Laboratory results published in US6919208B2, “Methods and compositions for enhancing the delivery of a nucleic acid to a cell” (The Children's Hospital of Philadelphia, priority 2000, dated 2005).
Read-outs that look alike come from different tables or passages of the source.

Tests used:
A10 cells [1] = tested on: A10 cells
Procedure: A10 cells were grown on native type I collagen containing 0, 15 and 50 micrograms per milliliter of Tenascin C. The cells were transfected with p-EGFP-N3 (green fluorescent protein) plasmid DNA.

A10 cells [2] = test: p-EGFP-N3 (GFP) plasmid transfection of A10 cells on native type I collagen with cytochalasin D added after lipofection; assay type: cell-based, Rat; details: 1 nanomolar
Procedure: A10 cells were grown on native type I collagen. […] Immediately after lipofection, cytochalasin D at a final concentration of 1 nanomolar was either added to cells for thirty minutes, added to cells for an overnight incubation or not added at all (control). The fluorescence of control cells, cells treated with cytochalasin D for thirty minutes, and cells treated with cytochalasin D for an overnight incubation (FIGS. 6A, 6B and 6C, respectively) was assessed. Bright field micrographs were also taken of the control cells, cells treated with cytochalasin D for thirty minutes, and cells treated with cytochalasin D for an overnight incubation (FIGS. 7A, 7B and 7C, respectively).

Molecule | cell morphology (bright field micrograph) (A10 cells [1]) | transfection (GFP expression), dose dependence (A10 cells [1]; 0, 15 and 50 micrograms per milliliter in native type I collagen, 24 h after transfection) | transfection (GFP fluorescence) (A10 cells [1]; 15 micrograms per milliliter in native type I collagen, 24 h after transfection) | transfection (GFP fluorescence) (A10 cells [1]; 50 micrograms per milliliter in native type I collagen, 24 h after transfection) | transfection (GFP expression), time dependence (A10 cells [2]; added immediately after lipofection) | transfection relative to control cells (A10 cells [2]; overnight exposure) | transfection relative to control cells (A10 cells [2]; thirty minute exposure)
Tenascin C: extracellular matrix protein abundantly expressed within remodeling tissues; added to native type I collagen | normal cell morphology | dose-dependent increase in transfection | increased transfection | highest degree of transfection | – | – | –
C=C1[C@@H](C)[C@H]2[C@H](Cc3ccccc3)NC(=O)[C@]23[C@H](OC(C)=O)/C=C/[C@@](C)(O)C(=O)[C@@H](C)C/C=C/[C@H]3[C@@H]1O [cytochalasin D] | – | – | – | – | time-dependent increase in transfection | notably higher amount of transfection | increased transfection
